# Literature values, collected in patent US9907807B2, “Topical pharmaceutical compositions” (Almirall, S.A., priority 2010, dated 2018).
smiles,measurement,setting,value
"C[C@@H]1C[C@H]2[C@@H]3CCC4=CC(=O)C=C[C@]4(C)[C@@]3(Cl)[C@@H](O)C[C@]2(C)[C@@]1(OC(=O)c1ccco1)C(=O)CCl [Mometasone furoate, 9α,21-dichloro-11β,17-dihydroxy-16α-methylpregna-1,4-diene-3,20-dione 17-(2-furoate)]",solubility in ethyl alcohol,ethyl alcohol,moderately soluble
same,solubility in octanol,octanol,slightly soluble
same,solubility in water,water,insoluble
